Data published in patent US8318736B2, “HIV inhibiting 5,6-substituted pyrimidines” (Janssen R&D Ireland, priority 2006, dated 2012).

Tests used:
HIV strain L100I + K103N = assay: microbe, parasite or virus in culture; assay type: cell-based, HIV-1; conditions: Human immunodeficiency virus 1, 72 h, read-out: L100I + K103N pEC50 (-log EC50) (converted)
Text: (§1) Image analysis allowed very sensitive detection of viral infection.

HIV strain K103N + Y181C [1] = assay: microbe, parasite or virus in culture; assay type: cell-based, HIV-1; conditions: Human immunodeficiency virus 1, 72 h, read-out: K103N + Y181C pEC50 (-log EC50) (converted)
Protocol: (§2) The ratio of CC50 to EC50 is defined as the selectivity index (SI) and is an indication of the selectivity of the anti-HIV activity of the inhibitor. The ultimate monitoring of HIV-1 infection and cytotoxicity was done using a scanning microscope. Image analysis allowed very sensitive detection of viral infection. Measurements were done before cell necrosis, which usually takes place about five days after infection, in particular measurements were performed three days after infection.

[2] = system: HIV strain IIIB (wild type); assay: microbe, parasite or virus in culture; conditions: for EC50: Human immunodeficiency virus 1, IIIB, 72 h, read-out: IIIB pEC50 (-log EC50) (converted); for pSI (IIIB) (-log SI; SI = ratio of CC50 to EC50): strain IIIB, CC50 in mock-infected MT4 CMV-EGFP cells
Protocol: Compounds of the invention were tested for their potency against wild type virus and clinically isolated HIV strains harboring one or more mutations associated with resistance to reverse transcriptase inhibitors. Antiviral activity was evaluated using a cellular assay performed according to the following procedure.
The human T-cell line MT4 was engineered with Green Fluorescent Protein (GFP) and a HIV-specific promoter, HIV-1 long terminal repeat (LTR). This cell line, designated MT4 LTR-EGFP, can be used for the in vitro evaluation of anti-HIV activity of investigational compounds. In HIV-1 infected cells, the Tat protein is produced, which upregulates the LTR promotor and eventually leads to stimulation of the GFP reporter production, allowing to measure ongoing HIV-infection fluorometrically.
Analogously, MT4 cells were engineered with GFP and the constitutional cytomegalovirus (CMV) promotor. This cell line was designated MT4 CMV-EGFP, and can be used for the in vitro evaluation of cytotoxicity of investigational compounds. […] Cytotoxic investigational compounds reduce GFP levels of mock-infected MT4 CMV-EGFP cells.
The ratio of CC50 to EC50 is defined as the selectivity index (SI) and is an indication of the selectivity of the anti-HIV activity of the inhibitor. The ultimate monitoring of HIV-1 infection and cytotoxicity was done using a scanning microscope. […] Measurements were done before cell necrosis, which usually takes place about five days after infection, in particular measurements were performed three days after infection.
The columns IIIB, L100I, etc. in the table list the pEC50 (−log EC50) values against various strains IIIB, L100I, etc.; pSI lists the −log SI values.
Strain IIIB is wild type HIV strain.

[3] = system: HIV strain MDR (L100I, K103N, Y181C, E138G, V1791, L2214F, V278V/I and A327A/V in HIV reverse transcriptase); assay: microbe, parasite or virus in culture; assay type: cell-based, HIV-1; conditions: Human immunodeficiency virus 1, read-out: MDR pEC50 (-log EC50) (converted)
Text: as §1
“MDR” refers to a strain that contains mutations L100I, K103N, Y181C, E138G, V1791, L2214F, V278V/I and A327A/V in HIV reverse transcriptase.

HIV strain K103N + Y181C [4] = system: HIV strain K103N + Y181C (second column with this head); assay: microbe, parasite or virus in culture; assay type: cell-based, HIV-1; conditions: Human immunodeficiency virus 1, 72 h, read-out: K103N + Y181C pEC50 (-log EC50) (converted)
Protocol: as §2

Row | SMILES | EC50 (HIV strain L100I + K103N) [µM] | EC50 (HIV strain K103N + Y181C [1]) [µM] | melting point [°C] | EC50 [2] [µM] | pSI (IIIB) (-log SI; SI = ratio of CC50 to EC50) [2] | EC50 [3] [µM] | EC50 (HIV strain K103N + Y181C [4]) [µM]
1 | COCc1nc(Nc2ccc(C#N)cc2)nc(Nc2c(C)cc(/C=C/C#N)cc2C)c1-c1cnccc1OC [Compound 1] | 0.0631 | 0.0933 | 120 | 0.0129 | >3.28 | 2.4 | 0.0832
2 | COCc1nc(Nc2ccc(C#N)cc2)nc(Nc2c(C)cc(/C=C/C#N)cc2C)c1-c1cccnc1 [Compound 2] | 0.00417 | 0.0214 | 216 | 0.00302 | 3.65 | 0.24 | 0.0158
3 | COCc1nc(Nc2ccc(C#N)cc2)nc(Nc2c(C)cc(/C=C/C#N)cc2C)c1-c1ccncc1 [Compound 3] | 0.00933 | 0.0295 | 172 | 0.00331 | >3.88 | 0.355 | 0.0224
4 | COCc1nc(Nc2ccc(C#N)cc2)nc(Nc2c(C)cc(/C=C/C#N)cc2C)c1-c1cccs1 [Compound 4] | 0.0038 | 0.0155 | 130 | 0.00457 | 3.73 | 0.138 | 0.0186
5 | COCc1nc(Nc2ccc(C#N)cc2)nc(Nc2c(C)cc(/C=C/C#N)cc2C)c1-c1ccsc1 [Compound 5] | 0.00501 | 0.0214 | 125 | 0.00437 | >3.76 | 0.324 | 0.0251
6 | COCc1nc(Nc2ccc(C#N)cc2)nc(Nc2c(C)cc(/C=C/C#N)cc2C)c1-c1ccco1 [Compound 6] | 0.00363 | 0.0166 | 105 | 0.00363 | 3.61 | 0.0891 | 0.0174
7 | COCc1nc(Nc2ccc(C#N)cc2)nc(Nc2c(C)cc(/C=C/C#N)cc2C)c1-c1ccoc1 [Compound 7] | 0.0024 | 0.0123 | 122 | 0.00372 | 3.75 | 0.0912 | 0.0126
8 | C=CC(O)c1c(COC)nc(Nc2ccc(C#N)cc2)nc1Nc1c(C)cc(/C=C/C#N)cc1C (stereo not shown) [Compound 36] | 0.00347 | 0.00871 | – | 0.00263 | 3.85 | 0.0661 | 0.0126
9 | COCc1nc(Nc2ccc(C#N)cc2)nc(Nc2c(C)cc(/C=C/C#N)cc2C)c1C(C)O (stereo not shown) [Compound 37] | 0.00245 | 0.00603 | – | 0.00145 | 3.95 | 0.105 | 0.0115
10 | COCc1nc(Nc2ccc(C#N)cc2)nc(Nc2c(C)cc(/C=C/C#N)cc2C)c1C(O)c1nccs1 (stereo not shown) [Compound 38] | 0.00372 | 0.0123 | – | 0.00269 | 3.81 | 0.174 | 0.012
